These results are taken from ChEMBL document CHEMBL1201862, “PubChem BioAssay data set” (2004).

Usually GI50 stands for the concentration giving 50% growth inhibition.

Among the test systems are 786-0; A498; A549; CCRF-CEM; COLO 205; DU-145; HOP-62; Hs-578T; MDA-MB-435; MOLT-4; NCI-H23; OVCAR-3; OVCAR-4; OVCAR-8; RXF 393; SN12C; SW-620; TK-10; UACC-257; UACC-62.
Common to all, as to assay: DTP human tumour cell line panel, 48 h

Each structure is given as a SMILES string.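 In this assay, cells in 96-well plates receive the compound at five concentrations for 48 hours. Endpoints are linearly interpolated between the surrounding concentrations. GI50: concentration for 50% inhibition of growth.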 Active and inactive are the calls of the source. No stated cut-off is given here; in the data, active = GI50 up to about 1.1 µM and inactive = higher. A value given as a limit tells only on which side of the number the result lay.

For `CC(=O)OCC1OC(O[C@@H]2C[C@H]3C(C)(C)[C@H](OC(C)=O)CC[C@]3(C)[C@H]3CC[C@@]45C[C@H](O)C[C@H](C)[C@@H]4CC=C5[C@@]32C)C(O)C(O)C1O` (some centres not stated), the GI50 with 786-0 is 3.83 µM (inactive); in the assay with A498 it was 6.67 µM (inactive); in the assay with A549 it was 4.59 µM (inactive); in the assay on CCRF-CEM it was 2.81 µM (inactive); in the assay on COLO 205 it was 1.82 µM (inactive); with DU-145, 8.28 µM (inactive). Besides, the GI50 is 9.53 µM (inactive) in the assay with HOP-62; 4.6 µM (inactive) with Hs-578T; 3.27 µM (inactive) in the assay on MDA-MB-435; 2.32 µM (inactive) in the assay on MOLT-4; 4.56 µM (inactive) with NCI-H23; 3.75 µM (inactive) with OVCAR-3. In addition, the GI50 in the assay with OVCAR-4 was 4.21 µM (inactive); in the assay on OVCAR-8, 4.83 µM (inactive); with RXF 393, 2.11 µM (inactive); in the assay with SN12C, 4.08 µM (inactive); in the assay with SW-620, 4.18 µM (inactive); in the assay with TK-10, 8.93 µM (inactive). Besides, the GI50 was 4.72 µM (inactive) in the assay on UACC-257 and 4.12 µM (inactive) with UACC-62.

Take `CC1=NN(C(=O)CC(=O)Nc2cccc(C)c2)C(=O)C1/N=N\c1ccc(S(=O)(=O)c2ccc(/N=N/C3C(=O)N(C(=O)CC(=O)Nc4cccc(C)c4)N=C3C)cc2)cc1` (configuration not stated): the GI50 in the assay with 786-0, in the assay with A498, in the assay with A549, with CCRF-CEM, in the assay with COLO 205 and in the assay with DU-145 was > 100 µM (inactive) throughout. Besides, the GI50 in the assay with HOP-62, with Hs-578T, in the assay on MDA-MB-435, in the assay with MOLT-4, in the assay with NCI-H23 and with OVCAR-3 was > 100 µM (inactive) throughout. Further, the GI50 in the assay with OVCAR-4, in the assay with OVCAR-8, in the assay with RXF 393, in the assay on SN12C, with SW-620 and with TK-10 was > 100 µM (inactive) in each case. Moreover, the GI50 in the assay with UACC-257 and in the assay with UACC-62 was > 100 µM (inactive) each time.

On to `COc1cc2nc(-c3ccccc3)cc(O)c2c(OC)c1OC`, for which the GI50 in the assay on 786-0, in the assay on A498, in the assay on A549, in the assay with CCRF-CEM, in the assay with COLO 205 and with DU-145 was > 100 µM (inactive) in each case. Besides, the GI50 in the assay with HOP-62, in the assay with Hs-578T, in the assay with MDA-MB-435, in the assay with MOLT-4, in the assay on NCI-H23 and with OVCAR-3 was > 100 µM (inactive) in each case. Also, the GI50 with OVCAR-4, with OVCAR-8, in the assay on RXF 393, in the assay with SN12C, in the assay with SW-620 and with TK-10 was > 100 µM (inactive) in each case. Also, the GI50 with UACC-257 and with UACC-62 was > 100 µM (inactive) throughout.

Turning to `CCCN(C(=O)c1ccccc1)C(C#N)c1ccc(C(C#N)N(CCC)C(=O)c2ccccc2)cc1` (configuration not stated), the GI50 in the assay on 786-0 was 38.1 µM (inactive); with A498, 37.1 µM (inactive); in the assay on A549, 56.6 µM (inactive); with CCRF-CEM, > 100 µM (inactive); with COLO 205 it was > 100 µM (inactive); in the assay with DU-145, 77.6 µM (inactive). Also, the GI50 in the assay with HOP-62 is 27.1 µM (inactive); with Hs-578T, 24.9 µM (inactive); with MDA-MB-435, > 100 µM (inactive); in the assay on MOLT-4 it was > 100 µM (inactive); in the assay with NCI-H23 it was > 100 µM (inactive); in the assay with OVCAR-3, > 100 µM (inactive). In addition, the GI50 is 14.5 µM (inactive) in the assay with OVCAR-4; 55.3 µM (inactive) in the assay with OVCAR-8; 35.6 µM (inactive) in the assay with RXF 393; > 100 µM (inactive) in the assay with SN12C; > 100 µM (inactive) in the assay on SW-620; > 100 µM (inactive) in the assay on TK-10. Besides, the GI50 is > 100 µM (inactive) in the assay on UACC-257 and 45 µM (inactive) in the assay on UACC-62.

In the case of `COc1cc2nc3c(=C(C#N)C#N)c4ccccc4n3c(=O)c2cc1OC`, the GI50 in the assay on 786-0 was > 100 µM (inactive); in the assay with A498, > 100 µM (inactive); in the assay with A549, > 100 µM (inactive); in the assay on CCRF-CEM it was 32.4 µM (inactive); in the assay on COLO 205, > 100 µM (inactive); with DU-145, > 100 µM (inactive). For the same compound, the GI50 in the assay on HOP-62 is > 100 µM (inactive); in the assay with Hs-578T, 44.3 µM (inactive); in the assay on MDA-MB-435, > 100 µM (inactive); with MOLT-4 it was > 100 µM (inactive); in the assay on NCI-H23, > 100 µM (inactive); in the assay with OVCAR-3, > 100 µM (inactive). Moreover, the GI50 in the assay with OVCAR-4, with OVCAR-8, in the assay with RXF 393, in the assay on SN12C, in the assay with SW-620 and with TK-10 was > 100 µM (inactive) in each case. The GI50 in the assay on UACC-257 and with UACC-62 was > 100 µM (inactive) in each case.

As to `CC1(C)OC[C@@H](/C=C\CCO[Si](c2ccccc2)(c2ccccc2)C(C)(C)C)N1C(=O)c1ccccc1`, the GI50 is 11.6 µM (inactive) in the assay on 786-0; 13.9 µM (inactive) in the assay on A498; 3.59 µM (inactive) with A549; 6.21 µM (inactive) in the assay on CCRF-CEM; 8.32 µM (inactive) with COLO 205; 18.8 µM (inactive) in the assay with DU-145. Further, the GI50 was 25.4 µM (inactive) in the assay with HOP-62; 12.5 µM (inactive) with Hs-578T; 13.2 µM (inactive) with MDA-MB-435; 3.13 µM (inactive) in the assay with MOLT-4; 4.61 µM (inactive) with NCI-H23; 7.5 µM (inactive) with OVCAR-3. The GI50 was 7.76 µM (inactive) with OVCAR-4; 15.8 µM (inactive) in the assay on OVCAR-8; 6.84 µM (inactive) in the assay with RXF 393; 11.1 µM (inactive) in the assay with SN12C; 14.5 µM (inactive) in the assay with SW-620; 11.2 µM (inactive) in the assay with TK-10. In addition, the GI50 in the assay on UACC-257 was 3.49 µM (inactive); with UACC-62, 9.91 µM (inactive).

On to `O=C1C(N2CCOCC2)=C(Cl)C(=O)c2ncccc21`, for which the GI50 with 786-0 is 1.84 µM (inactive); in the assay with A498, 8.32 µM (inactive); in the assay with A549, > 10 µM (inactive); in the assay with CCRF-CEM, 0.524 µM (active); in the assay on COLO 205 it was 2.24 µM (inactive); in the assay with DU-145, > 6.73 µM (inactive). The GI50 in the assay on HOP-62 was > 10 µM (inactive); with Hs-578T, 3.99 µM (inactive); in the assay on MDA-MB-435, 1.73 µM (inactive); with MOLT-4, 0.443 µM (active); in the assay with NCI-H23, 1.6 µM (inactive); in the assay on OVCAR-3, 1.81 µM (inactive). Besides, the GI50 in the assay on OVCAR-4 was 1.56 µM (inactive); in the assay on OVCAR-8, 2.61 µM (inactive); with RXF 393 it was 1.55 µM (inactive); in the assay with SN12C, 1.75 µM (inactive); in the assay on SW-620, 1.87 µM (inactive); with TK-10 it was 1.98 µM (inactive). Also, the GI50 with UACC-257 is 1.73 µM (inactive); in the assay on UACC-62 it was 2.33 µM (inactive).

Consider `C=C1CC/C=C(/C(=O)O)CC[C@H]2[C@@H]1CC2(C)C`, for which the GI50 in the assay on 786-0, in the assay on A498, in the assay on A549, with CCRF-CEM, in the assay on COLO 205 and in the assay on DU-145 was > 100 µM (inactive) each time. Further, the GI50 in the assay on HOP-62, in the assay on Hs-578T, with MDA-MB-435, in the assay on MOLT-4, with NCI-H23 and in the assay with OVCAR-3 was > 100 µM (inactive) throughout. For the same compound, the GI50 in the assay on OVCAR-4, in the assay with RXF 393, with SN12C, with SW-620, in the assay with TK-10 and in the assay on UACC-257 was > 100 µM (inactive) throughout. In addition, in the assay with UACC-62, the GI50 is > 100 µM (inactive).

Regarding `Clc1ccc(C2=NNC(c3cccc(Cl)c3)C2)cc1` (configuration not stated), the GI50 with 786-0 is 28.3 µM (inactive); in the assay on A498, 20 µM (inactive); in the assay on A549, 23.2 µM (inactive); in the assay with CCRF-CEM, 29 µM (inactive); in the assay on COLO 205, 15.9 µM (inactive); in the assay on DU-145, 36.9 µM (inactive). Also, the GI50 with HOP-62 is 32.2 µM (inactive); with Hs-578T, 28.8 µM (inactive); in the assay with MDA-MB-435 it was 17.9 µM (inactive); in the assay with MOLT-4 it was 27.1 µM (inactive); with NCI-H23 it was 25.8 µM (inactive); in the assay on OVCAR-3, 28.6 µM (inactive). Moreover, the GI50 in the assay with OVCAR-4 is 32.8 µM (inactive); in the assay with RXF 393, 31.3 µM (inactive); in the assay with SN12C, 21.4 µM (inactive); in the assay on SW-620, 23.2 µM (inactive); with TK-10 it was 26.4 µM (inactive); in the assay with UACC-257, 32.3 µM (inactive). In the assay on UACC-62, the GI50 is 28.8 µM (inactive).

For the compound `N#C/C=c1/c2ccccc2n2nc3ccccc3c12`, the GI50 with 786-0 is 5.01 µM (inactive); in the assay with A498, 13.7 µM (inactive); in the assay with A549, 30.2 µM (inactive); in the assay with CCRF-CEM, 81.7 µM (inactive); in the assay on COLO 205, 16.8 µM (inactive); in the assay with DU-145 it was > 100 µM (inactive). Moreover, the GI50 in the assay with HOP-62 was 17 µM (inactive); with Hs-578T it was 22.1 µM (inactive); in the assay on MDA-MB-435 it was > 100 µM (inactive); in the assay with NCI-H23 it was 22.3 µM (inactive); with OVCAR-3, 34.5 µM (inactive); in the assay with OVCAR-4, 11.6 µM (inactive). The GI50 was 11.7 µM (inactive) in the assay with OVCAR-8; 16.8 µM (inactive) in the assay on RXF 393; 25.2 µM (inactive) with SN12C; 25.6 µM (inactive) in the assay with SW-620; 8.02 µM (inactive) in the assay with TK-10; > 100 µM (inactive) with UACC-257. Moreover, in the assay with UACC-62, the GI50 is 14.9 µM (inactive).
